Measurements published in US20220378816A1, “2-BENZYLIDENE HYDRAZINOADENOSINE COMPOUNDS HAVING A2A ADENOSINE RECEPTOR AGONISTIC ACTIVITY” (ACADEMY OF MILITARY MEDICAL SCIENCES, priority 2019, published 2022).
Where two headings read alike, the source gives them in different places.

Tests used:
[1] = target: T1, (human) A2A adenosine receptors (Homo sapiens, UniProt P29274); test: Radioligand binding test ([3H]CGS21680 displacement, hA2A HEK-293 cell membranes); conditions: for Ki: read-out: Ki (inhibition constant)
T1 construct: purchased PerkinElmer Research Products (Boston, Mass.); host or cells: HEK-293
Protocol: Cell membranes stably transfected with (human) A2A adenosine receptors were prepared in HEK-293 cells. The cell membranes were obtained from PerkinElmer Research Products (Boston, Mass.).
The A2A adenosine receptors used were all expressed in the cell membranes. […] (final 25 nM) was added to the diluted cell membrane, and mixed well. 50 μL of the prepared dilution solution of cell membrane was transferred to the 384-well Opti-plate containing compound and incubated at 25° C. for 90 minutes. 100 μL of 0.5% Polyethyleneimine solution (PEI) was added to […]-96 GF/B filter plate, and soaked for 90 minutes at 4° C., then 500 μL of washing buffer/well (50 mM Tris-HCl pH 7.4, 154 mM NaCl) was transferred with Cell Harvester to wash the […]-96 GF/B filter plate twice. The mixed system in the Opti-plate was transferred to the washed […]-96 GF/B filter plate, 500 μL of washing buffer/well (50 mM Tris-HCl pH 7.4, 154 mM NaCl) was used to wash the […]-96 GF/B filter plate 9 times. Incubation was performed in 37° C. incubator for 3 minutes. 40 μL of ULTIMA GOLD scintillation solution (Perkin Elmer, Cat #77-16061) was added to each well, CPM (count per minute) value was read by a MicroBeta liquid scintillation counter (PerkinElmer).

[2] = calculated from IC50 by Cheng and Prusoff equation, [S] 25 nM, Km […] nM

T1 sequence (P29274 whole entry): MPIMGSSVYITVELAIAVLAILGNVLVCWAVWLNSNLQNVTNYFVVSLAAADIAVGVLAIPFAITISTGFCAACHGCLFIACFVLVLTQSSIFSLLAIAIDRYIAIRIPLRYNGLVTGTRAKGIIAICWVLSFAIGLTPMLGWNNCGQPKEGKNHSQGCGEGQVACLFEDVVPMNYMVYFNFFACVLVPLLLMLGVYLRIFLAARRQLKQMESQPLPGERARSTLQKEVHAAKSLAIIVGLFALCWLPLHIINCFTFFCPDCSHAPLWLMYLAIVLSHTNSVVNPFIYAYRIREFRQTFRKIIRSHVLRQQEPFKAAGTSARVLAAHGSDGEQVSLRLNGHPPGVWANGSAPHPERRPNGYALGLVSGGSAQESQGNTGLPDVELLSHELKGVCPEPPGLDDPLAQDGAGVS

| IC50 [1] [nM] | Ki [1] [nM] | melting point [°C] | Ki [1, 2] [nM] | SMILES |
| --- | --- | --- | --- | --- |
| 479 | 224 | 218 | – | CCCOc1ccc(/C=N/Nc2nc(N)c3ncn([C@@H]4O[C@H](CO)C(O)C4O)c3n2)cc1 (stereo partly drawn) [Compound 13, (2R,3R,45,5R)-2-{6-amino-2-{2-[(E)-4-propoxybenzylidene]hydrazino}-9H-purine-9-yl}-5-(hydroxymethyl)tetrahydrofuran-3,4-diol] |
| 1710 | – | 186 | 800 | Nc1nc(N/N=C/c2ccc(N3CCOCC3)cc2)nc2c1ncn2[C@@H]1O[C@H](CO)[C@@H](O)[C@H]1O [Compound 17, (2R,3R,4S,5R)-2-{6-amino-2-{2-[(E)-4-morpholinobenzylidene]hydrazino}-9H-purin-9-yl}-5-(hydroxymethyl)tetrahydrofuran-3,4-diol] |

Second part, the molecule before the results:

| SMILES | IC50 [1] [nM] | Ki [1] [nM] | melting point [°C] | Ki [1, 2] [nM] |
| --- | --- | --- | --- | --- |
| CCOc1cc(/C=N/Nc2nc(N)c3ncn([C@@H]4O[C@H](CO)[C@@H](O)[C@H]4O)c3n2)ccc1O [Compound 16, (2R,3R,4S,5R)-2-{6-amino-2-{2-[(E)-3-ethoxy-4-hydroxybenzylidene]hydrazino}-9H-purin-9-yl}-5-(hydroxymethyl)tetrahydrofuran-3,4-diol] | 3460 | – | 198 | 1620 |
| COc1cc(/C=N/Nc2nc(N)c3ncn([C@@H]4O[C@H](CO)[C@@H](O)[C@H]4O)c3n2)cc(OC)c1OC [Compound 18, (2R,3R,4S,5R)-2-{6-amino-2-{2-[(E)-3,4,5-trimethoxybenzylidene]hydrazino}-9H-purin-9-yl}-5-(hydroxymethyl)tetrahydrofuran-3,4-diol] | > 10000 | – | 246 | – |
| COc1cc(/C=N/Nc2nc(N)c3ncn([C@@H]4O[C@H](CO)[C@@H](O)[C@H]4O)c3n2)ccc1OCc1ccccc1 [Compound 19, (2R,3R,4S,5R)-2-{6-amino-2-{2-[(E)-4-(benzyloxy)-3-methoxybenzylidene]hydrazino}-9H-purin-9-yl}-5-(hydroxymethyl)tetrahydrofuran-3,4-diol] | 216 | – | 146 | 101 |
